# Source: patent publication US20090118332A1, “Therapeutic Agents - 551” (AstraZeneca AB, priority 2006, published 2009)
# Target: T1, human Fatty Acid Synthase (Homo sapiens, UniProt P49327)
# T1 construct: made in house
# Test: Human FAS enzyme assay (decrease in NADPH fluorescence)
# Assay type: biochemical
# Details: % inhibition at a concentration of 100 μmolar
# Summary of the method: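 In-house human FAS was preincubated with compound and NADPH for 15 min at room temperature in 0.1 M Tris pH 7.5 with EDTA, glutathione and BSA. Malonyl CoA and acetyl CoA (500 μM and 150 μM in the added mix) were then added for 60 min. IC50 came from time-zero-subtracted NADPH fluorescence (340/460 nm).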
# T1 sequence (P49327 whole entry): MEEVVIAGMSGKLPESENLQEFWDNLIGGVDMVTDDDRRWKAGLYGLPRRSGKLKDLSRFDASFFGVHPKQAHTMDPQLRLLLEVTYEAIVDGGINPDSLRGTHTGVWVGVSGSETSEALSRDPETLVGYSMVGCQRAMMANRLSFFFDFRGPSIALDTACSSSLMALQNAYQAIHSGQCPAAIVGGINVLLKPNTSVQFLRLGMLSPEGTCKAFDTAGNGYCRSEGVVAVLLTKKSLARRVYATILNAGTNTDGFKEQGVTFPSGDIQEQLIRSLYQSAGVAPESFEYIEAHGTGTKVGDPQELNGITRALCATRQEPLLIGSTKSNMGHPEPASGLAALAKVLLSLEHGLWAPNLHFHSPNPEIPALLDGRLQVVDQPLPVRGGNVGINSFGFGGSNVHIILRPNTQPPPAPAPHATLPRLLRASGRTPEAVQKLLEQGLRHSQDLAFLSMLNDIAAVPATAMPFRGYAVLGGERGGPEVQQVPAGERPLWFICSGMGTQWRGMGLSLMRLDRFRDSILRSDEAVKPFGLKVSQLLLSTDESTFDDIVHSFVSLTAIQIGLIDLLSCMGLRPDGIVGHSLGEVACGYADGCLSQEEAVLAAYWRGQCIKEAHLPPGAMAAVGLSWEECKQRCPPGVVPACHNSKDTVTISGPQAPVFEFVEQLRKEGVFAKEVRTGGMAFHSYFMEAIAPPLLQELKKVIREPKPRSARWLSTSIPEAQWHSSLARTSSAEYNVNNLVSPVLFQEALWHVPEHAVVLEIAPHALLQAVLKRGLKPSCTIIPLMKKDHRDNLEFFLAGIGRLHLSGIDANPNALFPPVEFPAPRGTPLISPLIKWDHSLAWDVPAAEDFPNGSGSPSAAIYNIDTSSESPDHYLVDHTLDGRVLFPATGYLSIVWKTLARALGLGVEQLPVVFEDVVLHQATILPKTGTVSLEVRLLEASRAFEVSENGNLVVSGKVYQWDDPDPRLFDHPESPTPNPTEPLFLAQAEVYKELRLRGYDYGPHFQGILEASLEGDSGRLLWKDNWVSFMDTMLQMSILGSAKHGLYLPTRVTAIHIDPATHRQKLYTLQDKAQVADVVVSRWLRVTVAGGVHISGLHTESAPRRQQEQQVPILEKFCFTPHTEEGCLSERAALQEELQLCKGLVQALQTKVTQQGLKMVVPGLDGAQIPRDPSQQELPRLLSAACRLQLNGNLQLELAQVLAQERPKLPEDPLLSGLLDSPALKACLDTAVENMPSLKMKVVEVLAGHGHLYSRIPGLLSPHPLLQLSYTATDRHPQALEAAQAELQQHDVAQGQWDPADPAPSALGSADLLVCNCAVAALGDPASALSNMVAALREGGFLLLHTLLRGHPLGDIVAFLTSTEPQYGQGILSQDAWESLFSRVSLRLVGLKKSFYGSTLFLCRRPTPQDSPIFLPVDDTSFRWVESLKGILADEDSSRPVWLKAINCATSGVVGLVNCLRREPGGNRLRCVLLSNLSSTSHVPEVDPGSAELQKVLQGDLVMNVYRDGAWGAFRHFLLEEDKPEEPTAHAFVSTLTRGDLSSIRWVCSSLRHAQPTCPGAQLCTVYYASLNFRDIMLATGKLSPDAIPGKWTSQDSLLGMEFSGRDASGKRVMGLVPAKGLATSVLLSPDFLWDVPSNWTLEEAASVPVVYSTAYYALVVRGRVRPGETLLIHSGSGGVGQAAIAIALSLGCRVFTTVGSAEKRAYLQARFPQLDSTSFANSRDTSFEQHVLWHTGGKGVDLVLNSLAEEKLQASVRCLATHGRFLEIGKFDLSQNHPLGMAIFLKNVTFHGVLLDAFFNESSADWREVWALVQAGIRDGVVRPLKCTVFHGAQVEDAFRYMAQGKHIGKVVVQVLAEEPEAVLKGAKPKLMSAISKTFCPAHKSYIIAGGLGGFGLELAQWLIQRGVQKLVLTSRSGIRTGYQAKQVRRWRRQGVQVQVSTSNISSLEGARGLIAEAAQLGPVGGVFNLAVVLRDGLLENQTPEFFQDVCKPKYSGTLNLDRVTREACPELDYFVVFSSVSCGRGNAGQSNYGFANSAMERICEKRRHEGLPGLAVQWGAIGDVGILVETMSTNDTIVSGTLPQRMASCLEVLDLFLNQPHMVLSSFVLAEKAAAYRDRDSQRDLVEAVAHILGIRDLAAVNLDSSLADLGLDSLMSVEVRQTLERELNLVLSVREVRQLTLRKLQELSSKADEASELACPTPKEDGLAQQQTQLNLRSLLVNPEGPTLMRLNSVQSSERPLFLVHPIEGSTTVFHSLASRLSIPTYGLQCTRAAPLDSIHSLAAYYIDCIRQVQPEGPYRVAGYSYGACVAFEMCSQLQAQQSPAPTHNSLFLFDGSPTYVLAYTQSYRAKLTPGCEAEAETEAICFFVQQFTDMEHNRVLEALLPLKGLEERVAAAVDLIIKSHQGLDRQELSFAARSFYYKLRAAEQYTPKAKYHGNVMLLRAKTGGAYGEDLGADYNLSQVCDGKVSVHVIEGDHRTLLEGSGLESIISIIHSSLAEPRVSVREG
row,inhibition at 100 µM,Structure (SMILES)
1,94.9%,"Cc1ccc(C(=O)N2CCC(c3ccc(C#N)cc3)CC2)cc1NC(=O)NCC1COCCO1 (stereo not shown) [Example 160, 1-[5-[4-(4-cyanophenyl)piperidine-1-carbonyl]-2-methyl-phenyl]-3-(1,4-dioxan-2-ylmethyl)urea]"
2,93.7%,"COCCOCCCNC(=O)Nc1cc(C(=O)N2CCC(c3ccc(C#N)cc3)CC2)ccc1C [Example 161, 1-[5-[4-(4-cyanophenyl)piperidine-1-carbonyl]-2-methyl-phenyl]-3-[3-(2-methoxyethoxy)propyl]urea]"
3,84.2%,"Cc1ccc(C(=O)N2CCC(c3ccc(C#N)cc3)CC2)cc1NC(=O)NC1CCOCC1 [Example 162, 1-[5-[4-(4-cyanophenyl)piperidine-1-carbonyl]-2-methyl-phenyl]-3-(oxan-4-yl)urea]"
4,102%,"Cc1ccc(C(=O)N2CCC(c3ccc(C#N)cc3)CC2)cc1NC(=O)NC1COc2ccccc2OC1 [Example 163, 1-[5-[4-(4-cyanophenyl)piperidine-1-carbonyl]-2-methyl-phenyl]-3-(2,6-dioxabicyclo[5.4.0]undeca-8,10,12-trien-4-yl)urea]"
5,95%,"CCCOCCNC(=O)Nc1cc(C(=O)N2CCC(c3ccc(C#N)cc3)CC2)ccc1C [Example 164, 3-[5-[4-(4-cyanophenyl)piperidine-1-carbonyl]-2-methyl-phenyl]-1-(2-propoxyethyl)urea]"
6,92.4%,"Cc1ccc(C(=O)N2CCC(c3ccc(C#N)cc3)CC2)cc1NC(=O)NCC1COc2ccccc2O1 (stereo not shown) [Example 165, 1-[5-[4-(4-cyanophenyl)piperidine-1-carbonyl]-2-methyl-phenyl]-3-(7,10-dioxabicyclo[4.4.0]deca-2,4,11-trien-8-ylmethyl)urea]"
7,94.7%,"Cc1ccc(C(=O)N2CCC(c3ccc(C#N)cc3)CC2)cc1NC(=O)NCC1CCCCO1 (stereo not shown) [Example 166, 1-[5-[4-(4-cyanophenyl)piperidine-1-carbonyl]-2-methyl-phenyl]-3-(oxan-2-ylmethyl)urea]"
8,90.3%,"Cc1ccc(C(=O)N2CCC(c3ccc(C#N)cc3)CC2)cc1NC(=O)NCC#N [Example 167, 3-(cyanomethyl)-1-[5-[4-(4-cyanophenyl)piperidine-1-carbonyl]-2-methyl-phenyl]urea]"
9,84.6%,"Cc1ccc(C(=O)N2CCC(c3ccc(C#N)cc3)CC2)cc1NC(=O)NCC(F)(F)F [Example 168, 1-[5-[4-(4-cyanophenyl)piperidine-1-carbonyl]-2-methyl-phenyl]-3-(2,2,2-trifluoroethyl)urea]"
10,95.6%,"Cc1ccc(C(=O)N2CCC(c3ccc(C#N)cc3)CC2)cc1NC(=O)NC1CCS(=O)(=O)C1 (stereo not shown) [Example 169, 1-[5-[4-(4-cyanophenyl)piperidine-1-carbonyl]-2-methyl-phenyl]-3-(1,1-dioxothiolan-3-yl)urea]"
11,94.6%,"Cc1ccc(C(=O)N2CCC(c3ccc(C#N)cc3)CC2)cc1NC(=O)NCCC(=O)Nc1ccccn1 [Example 170, 3-[[5-[4-(4-cyanophenyl)piperidine-1-carbonyl]-2-methyl-phenyl]carbamoylamino]-N-pyridin-2-yl-propanamide]"
12,96.3%,"Cc1ccc(C(=O)N2CCC(c3ccc(C#N)cc3)CC2)cc1NC(=O)NCC(=O)NC(C)C [Example 171, 2-[[5-[4-(4-cyanophenyl)piperidine-1-carbonyl]-2-methyl-phenyl]carbamoylamino]-N-propan-2-yl-acetamide]"
13,91.8%,"CCCCNC(=O)NCCNC(=O)Nc1cc(C(=O)N2CCC(c3ccc(C#N)cc3)CC2)ccc1C [Example 172, 1-butyl-3-[2-[[5-[4-(4-cyanophenyl)piperidine-1-carbonyl]-2-methyl-phenyl]carbamoylamino]ethyl]urea]"
14,95.5%,"Cc1ccc(C(=O)N2CCC(c3ccc(C#N)cc3)CC2)cc1NC(=O)NCCCCCNC(=O)N1CCOCC1 [Example 173, N-[5-[[5-[4-(4-cyanophenyl)piperidine-1-carbonyl]-2-methyl-phenyl]carbamoylamino]pentyl]morpholine-4-carboxamide]"
15,97.4%,"CCCS(=O)(=O)NCCNC(=O)Nc1cc(C(=O)N2CCC(c3ccc(C#N)cc3)CC2)ccc1C [Example 174, 3-[5-[4-(4-cyanophenyl)piperidine-1-carbonyl]-2-methyl-phenyl]-1-[2-(propylsulfonylamino)ethyl]urea]"
16,96.1%,"Cc1ccc(C(=O)N2CCC(c3ccc(C#N)cc3)CC2)cc1NC(=O)NCCNC(=O)C1CCCCC1 [Example 175, N-[2-[[5-[4-(4-cyanophenyl)piperidine-1-carbonyl]-2-methyl-phenyl]carbamoylamino]ethyl]cyclohexanecarboxamide]"
17,92.6%,"Cc1ccc(C(=O)N2CCC(c3ccc(C#N)cc3)CC2)cc1NC(=O)NCCN1CCCC1=O [Example 176, 1-[5-[4-(4-cyanophenyl)piperidine-1-carbonyl]-2-methyl-phenyl]-3-[2-(2-oxopyrrolidin-1-yl)ethyl]urea]"

row,inhibition at 100 µM,Structure (SMILES)
1,94.8%,"COC(=O)[C@H](CNC(=O)Nc1cc(C(=O)N2CCC(c3ccc(C#N)cc3)CC2)ccc1C)NC(=O)OC(C)(C)C [Example 177, Methyl (2S)-3-[[5-[4-(4-cyanophenyl)piperidine-1-carbonyl]-2-methyl-phenyl]carbamoylamino]-2-[(2-methylpropan-2-yl)oxycarbonylamino]propanoate]"
2,95.9%,"Cc1ccc(C(=O)N2CCC(c3ccc(C#N)cc3)CC2)cc1NC(=O)NCCCN1CCCCCC1=O [Example 178, 1-[5-[4-(4-cyanophenyl)piperidine-1-carbonyl]-2-methyl-phenyl]-3-[3-(2-oxoazepan-1-yl)propyl]urea]"
3,89.2%,"CNC(=O)CCNC(=O)Nc1cc(C(=O)N2CCC(c3ccc(C#N)cc3)CC2)ccc1C [Example 179, 3-[[5-[4-(4-cyanophenyl)piperidine-1-carbonyl]-2-methyl-phenyl]carbamoylamino]-N-methyl-propanamide]"
4,92%,"Cc1ccc(C(=O)N2CCC(c3ccc(C#N)cc3)CC2)cc1NC(=O)N[C@@H](CCS(C)(=O)=O)C(=O)OC(C)(C)C [Example 180, tert-butyl (2S)-2-[[5-[4-(4-cyanophenyl)piperidine-1-carbonyl]-2-methyl-phenyl]carbamoylamino]-4-methylsulfonyl-butanoate]"
5,93.1%,"COC(=O)C1CCC(NC(=O)Nc2cc(C(=O)N3CCC(c4ccc(C#N)cc4)CC3)ccc2C)CC1 (stereo not shown) [Example 181, Methyl 4-[[5-[4-(4-cyanophenyl)piperidine-1-carbonyl]-2-methyl-phenyl]carbamoylamino]cyclohexane-1-carboxylate]"
6,96.2%,"Cc1ccc(C(=O)N2CCC(c3ccc(C#N)cc3)CC2)cc1NC(=O)NC(C)CO (stereo not shown) [Example 182, 1-[5-[4-(4-cyanophenyl)piperidine-1-carbonyl]-2-methyl-phenyl]-3-(1-hydroxypropan-2-yl)urea]"
7,89.6%,"Cc1ccc(C(=O)N2CCC(c3ccc(C#N)cc3)CC2)cc1NC(=O)NCC(C)O (stereo not shown) [Example 183, 1-[5-[4-(4-cyanophenyl)piperidine-1-carbonyl]-2-methyl-phenyl]-3-(2-hydroxypropyl)urea]"
8,81.7%,"Cc1ccc(C(=O)N2CCC(c3ccc(C#N)cc3)CC2)cc1NC(=O)NCC(O)CO (stereo not shown) [Example 184, 1-[5-[4-(4-cyanophenyl)piperidine-1-carbonyl]-2-methyl-phenyl]-3-(2,3-dihydroxypropyl)urea]"
9,92.6%,"Cc1ccc(C(=O)N2CCC(c3ccc(C#N)cc3)CC2)cc1NC(=O)NCCCCO [Example 185, 1-[5-[4-(4-cyanophenyl)piperidine-1-carbonyl]-2-methyl-phenyl]-3-(4-hydroxybutyl)urea]"
10,86.4%,"Cc1ccc(C(=O)N2CCC(c3ccc(C#N)cc3)CC2)cc1NC(=O)NC(CO)CO [Example 186, 1-[5-[4-(4-cyanophenyl)piperidine-1-carbonyl]-2-methyl-phenyl]-3-(1,3-dihydroxypropan-2-yl)urea]"
11,89%,"Cc1ccc(C(=O)N2CCC(c3ccc(C#N)cc3)CC2)cc1NC(=O)NCC(C)(C)CO [Example 188, 1-[5-[4-(4-cyanophenyl)piperidine-1-carbonyl]-2-methyl-phenyl]-3-(3-hydroxy-2,2-dimethyl-propyl)urea]"
12,85.6%,"Cc1ccc(C(=O)N2CCC(c3ccc(C#N)cc3)CC2)cc1NC(=O)NCCOCCO [Example 189, 1-[5-[4-(4-cyanophenyl)piperidine-1-carbonyl]-2-methyl-phenyl]-3-[2-(2-hydroxyethoxy)ethyl]urea]"
13,82.9%,"Cc1ccc(C(=O)N2CCC(c3ccc(C#N)cc3)CC2)cc1NC(=O)NC(C)(C)CO [Example 190, 1-[5-[4-(4-cyanophenyl)piperidine-1-carbonyl]-2-methyl-phenyl]-3-(1-hydroxy-2-methyl-propan-2-yl)urea]"
14,92.2%,"Cc1ccc(C(=O)N2CCC(c3ccc(C#N)cc3)CC2)cc1NC(=O)NCCCO [Example 191, 1-[5-[4-(4-cyanophenyl)piperidine-1-carbonyl]-2-methyl-phenyl]-3-(3-hydroxypropyl)urea]"
15,85.1%,"Cc1ccc(C(=O)N2CCC(c3ccc(C#N)cc3)CC2)cc1NC(=O)N[C@@H](CO)C(N)=O [Example 192, (2S)-2-[[5-[4-(4-cyanophenyl)piperidine-1-carbonyl]-2-methyl-phenyl]carbamoylamino]-3-hydroxy-propanamide]"
16,85.8%,"Cc1ccc(C(=O)N2CCC(c3ccc(C#N)cc3)CC2)cc1NC(=O)N[C@H]1CC[C@H](O)CC1 [Example 193, 1-[5-[4-(4-cyanophenyl)piperidine-1-carbonyl]-2-methyl-phenyl]-3-(4-hydroxycyclohexyl)urea]"
17,84.3%,"Cc1ccc(C(=O)N2CCC(c3ccc(C#N)cc3)CC2)cc1NC(=O)NC1(CO)CCCC1 [Example 194, 1-[5-[4-(4-cyanophenyl)piperidine-1-carbonyl]-2-methyl-phenyl]-3-[1-(hydroxymethyl)cyclopentyl]urea]"
